What was measured:
[1] = in vivo; cited from earlier work
[2] = Sedimentation / precipitation of theobromine in the filled product; format: physicochemical; conditions: in the emulsions of Example 3
Method: 2000 ml of conventional water based energy drink supplements were produced by blending all ingredients below, heating to 170 F and cooling to ambient temperature. About 30 ml of each composition were filled into HDPE plastic bottles. Example 1A contained 210 mg caffeine, 460 mg taurine, 120 mg N Acetyl L-Tyrosine, 300 mg glucuronolactone/30 ml serving. The water activity was 0.95; water content was 86% and pH of 2.90. […] Products were filled into 30 ml HDPE bottles and capped.
For each formulation, 1000 g batches were made. Milk fat and cocoa butter were weighted up and pre-blended at the specified amounts, then heated up to 130 F in a processing vessel. Water, mono and diglycerides, sugar, glycerin, cocoa powder and other optional ingredients were added Caffeine, theobromine, glucuronolactone, taurine and N acetyl L-tyrosine were mixed in. The admixture was heated up to 170-180 F for about 5 minutes and then cooled to 100 F. The water activity was adjusted to 0.85 or lower by the addition of glycerin. The entire admixture was homogenized at 1,000 psi for example 3A and at to 3,000 psi for example 3B and 3C. […] Water activity readings were 0.81, 0.82 and 0.72 for example 3A, 3B and 3C respectively. The pH readings were 5.8, 5.3 and 6.7 for example 3A, 3B and 3C respectively. Viscosity readings were 110, 170 and 250 centipoise for example 3A, 3B and 3C respectively.

[3] = cited from earlier work

Row | Molecule | impact is felt in [1] [min] | precipitation of theobromine [2] | half-life [1] [h] | water solubility [3] | fat / lipid solubility [3]
1 | Cn1c(=O)c2c(ncn2C)n(C)c1=O [caffeine, reference compound] | 15 to 30 |  |  |  | 
2 | Cn1cnc2c1c(=O)[nH]c(=O)n2C [theobromine] |  | not precipitated | 7 to 12 | not water soluble | 
3 | Phosphatidylcholine |  |  |  | not water soluble | only lipid soluble
4 | Phosphatidylserine [PS] |  |  |  | not water soluble | only lipid soluble
